From patent publication US12528774B2, “Thiosemicarbazone compounds and uses thereof” (The Regents of the University of California, priority 2019, dated 2026)

How the values were obtained:
MIAPACA2 cells = experiment: ROS measurements (CM-H2DCFDA, MitoSOX); assay type: cell-based, human; details: 24 h
Procedure: FIGS. 2A-2I. FIG. 2A: representative immunoblots of MIAPACA2 PDAC cells treated as indicated for 24h. FIGS. 2B-2C: reactive oxygen species (ROS) measurement using CM-H2DCFDA staining after HCT13 (25 nM)+Cu(II) (20 μM) treatment for 24h; mean fluorescence intensity (MFI); mean±SD, n=2, Student t-test, ***P<0.001. FIG. 2D-2E: mitochondrial ROS detection using MitoSOX staining in MIAPACA2 PDAC cells treated with HCT-13 (25 nM)+Cu(II) (20 μM) for 24h; mean±SD, n=2, Student t-test, ***P<0.001. FIG. 2F: oxygen consumption rate (OCR) of MIAPACA2 PDAC cells treated with HCT-13 (25 nM)+Cu(II) (20 μM). FIG. 2G: OCR of isolated mitochondria measured with or without HCT-13 (25 nM)+Cu(II) (20 μM). FIG. 2H: viability of 143 BTK parental (wild type, WT) and po cells after 48 h of treatment with the indicated HCT-13 concentrations+Cu(II) (20 μM) treatment, assessed with trypan blue staining; mean±SD, n=2, Student t-test, ***P<0.001. […]
ROS Measurements: Cellular ROS measurement was assayed with CM-H2DCFDA staining after treatment according to manufacturer's instructions (Reactive Oxygen Species (ROS) Detection Reagents, Invitrogen, #D399). […] The samples were analyzed using flow cytometry.
Mitochondrial ROS was measured using MitoSOX staining according to manufacturer's instructions (MitoSOX, Invitrogen, #M36008). […]
ROS Measurements. […] The samples were analyzed using flow cytometry. […]

[1] = biological target: dihydroorotate dehydrogenase (DHODH) (Homo sapiens, UniProt Q02127); experiment: Recombinant DHODH activity assay; assay type: biochemical; details: HCT-13 100 nM, 1 μM; Cu(II) 20 μM
Sequence of dihydroorotate dehydrogenase (DHODH) (Q02127 whole entry, species assumed): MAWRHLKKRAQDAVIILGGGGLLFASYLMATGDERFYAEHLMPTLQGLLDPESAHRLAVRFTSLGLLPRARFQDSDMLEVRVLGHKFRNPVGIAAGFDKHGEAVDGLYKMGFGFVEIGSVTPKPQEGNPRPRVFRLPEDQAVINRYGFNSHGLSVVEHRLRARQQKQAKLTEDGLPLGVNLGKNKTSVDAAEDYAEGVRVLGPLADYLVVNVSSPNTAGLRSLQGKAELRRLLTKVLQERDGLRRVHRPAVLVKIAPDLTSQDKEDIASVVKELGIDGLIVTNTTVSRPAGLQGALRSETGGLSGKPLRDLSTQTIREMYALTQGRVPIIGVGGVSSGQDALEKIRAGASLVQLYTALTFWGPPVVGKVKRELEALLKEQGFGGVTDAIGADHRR
Procedure: FIG. 5A: rescue of HCT-13 (25 nM)-induced cell death by Uridine (rU) (200 μM), Pyruvate (1 mM), or both following 48h of treatment. FIG. 5B: measurement of DHODH activity using recombinant DHODH assay following treatment with indicated perturbations for 2 min. DHODH inhibitor used: NITD-982-1 μM; HCT-13-100 nM, 1 μM, (100 nM data shown); Cu(II)—20 μM. (mean±SD, n=2, Student t-test, * P<0.05).
DHODH activity: Recombinant protein was incubated in an aqueous solution (total volume, 1.0 mL) containing 500 μM DHO (Sigma, D1728), 200 mM K2CO3-HCl (pH 8.0), 0.2% triton x-100, and 100 μM coenzyme Q10 (Sigma, C9538) at 37° C. for 0, 15, 30, 45, or 60 min. An aliquot (100 μL) of the mixture of enzyme reaction mixture or cell/tissue lysate was mixed with 100 μL of 0, 0.5, or 1.0 μM orotic acid, 50 μL of H2O, 250 μL of 4.0 mM 4-TFMBAO (Sigma, 422231), 250 μL of 8.0 mM K3[Fe(CN)6] (Sigma, 244023), and 250 μL of 80 mM K2CO3 (Sigma, P5833) and then heated at 80° C. for 4.0 min. The reaction was stopped by cooling in an ice-water bath and the absorbance was measured with a spectrofluorometer (FP-6300 Jasco, Tokyo, Japan): excitation and emission wavelengths were 340 nm and 460 nm, respectively.

CN(C)C(=S)N/N=C/c1nccc2cc(F)ccc12 (mixture of isomers) [HCT13, (E)-2-((6-Fluoroisoquinolin-1-yl)methylene)-N,N-dimethylhydrazine-1-carbothioamide and (Z)-2-((6-Fluoroisoquinolin-1-yl)methylene)-N,N-dimethylhydrazine-1-carbothioamide]
ROS generation (CM-H2DCFDA staining) (MIAPACA2 cells; HCT13 25 nM + Cu(II) 20 μM): induced ROS generation | mitochondrial ROS (MitoSOX) (MIAPACA2 cells; HCT-13 25 nM + Cu(II) 20 μM): also observed in the mitochondria | affinity for DHODH [1]: did not demonstrate affinity
